Assay: gradient 5% acetonitrile 3 min, to 50% in 2 min, to 85% in 15 min, held 3 min, 100 µL/min
Conditions: column: Zorbax Extend-C18 2.1 x 50 mm; eluents: water / acetonitrile, 0.1% formic acid
Outline: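 Pure standards were analyzed in mixtures of ~100 molecules using HPLC coupled to a quadrupole time-of-flight mass spectrometer, in both positive and negative ionization mode. Separation used a Zorbax Extend-C18 column (2.1 × 50 mm, 1.8 μm) at 100 μL/min, with water and acetonitrile each containing 0.1% formic acid. Dead and dwell volumes were 40 μL and 900 μL, and data were collected over 3 months. Retention time was read from computationally picked adduct peaks, each inspected manually.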

| Compound | RP-LC retention time [s] |
| --- | --- |
| Cc1ccc(-c2cn3c(CC(=O)NCc4ccccc4)csc3n2)cc1C | 826 |
| Cc1ccc(NC(=O)c2c(C)sc3ncnc(N4CCCC(C)C4)c23)cc1 (stereo unspecified) | 1220 |
| O=c1cc(N2CCOCC2)c(-c2ccccc2)n[nH]1 | 623 |
| Cc1ccc(C)c(NC(=O)NCCn2nnc3cc(C(=O)N(C)C)ccc32)c1 | 664 |
| CCOC(=O)c1c(NC(=O)CN2CCN(c3ccccn3)CC2)sc(C(N)=O)c1C | 599 |
| COc1ccc(NCc2ccc3c(c2)n(C)c(=O)n3C)cc1Cl | 1150 |
| Fc1ccc(Nc2nc(N3CCOCC3)nc3[nH]ncc23)cc1 | 601 |
| C#CCOCC1CCN(C(=O)c2cc(-c3cccs3)[nH]n2)CC1 | 734 |
| COc1cc(NC(=O)CSC2CCc3ccccc3NC2=O)cc(OC)c1OC (stereo unspecified) | 719 |
| CC1CCN(C(=O)c2ccc3c(c2)CC(=O)N3C)CC1 | 692 |
| O=C(NCCN1CCCCC1)C1CN(S(=O)(=O)c2cccnc2)CC12CCCCC2 (stereo unspecified) | 613 |
| Cc1ccc(C)c(NC(=O)c2cc3c(=O)n(CC(C)C)ccc3n2C)c1 | 884 |
| Cc1cccc(-c2nnc(CC(=O)NCCC(C)C)o2)c1 | 828 |
| COC(=O)c1c(NC(C)c2ccc(F)cc2)c2cccc(Cl)c2[nH]c1=O (stereo unspecified) | 858 |
| O=C(O)Cn1c(-c2cccnc2)nc2ccccc21 | 564 |
| Cc1ccc(Nc2nc3ccncc3n(C(C)C)c2=O)cc1F | 722 |
| CC1CCc2c(N3CCC(O)CC3)c(F)cc3c(=O)c(C(=O)O)cn1c23 (stereo unspecified) | 709 |
| COc1ccc(NC(=O)C2CCCN(c3nnc4ccccn34)C2)cc1Cl (stereo unspecified) | 702 |
| Cc1ccc(CNC(=O)Cn2c(N)nc(C)cc2=O)cc1 | 595 |
| Cc1nn(-c2ccc(-c3ccccc3)nn2)c(C)c1S(=O)(=O)N1CCCCC1 | 1090 |
| Cc1c(C(=O)N(C)C)cnn1-c1ccc(-c2nc(C3CC3)no2)cn1 | 790 |
| Cc1ccc(N2C=NS(=O)(=O)c3cccnc32)c(F)c1 | 801 |
| O=C(CSc1cc(N2CCCCC2)ncn1)Nc1cccc(Br)c1 | 1050 |

| Compound | RP-LC retention time [s] |
| --- | --- |
| CC(C)NC(=O)c1ccc(OCC2CCN(C(=O)c3ccc(F)cc3Cl)CC2)cc1 | 888 |
| COCc1nc(CCNS(=O)(=O)c2ccc(OC)cc2)no1 | 731 |
| CCOC(=O)Cc1csc(NC(=O)c2cc3cc([N+](=O)[O-])ccc3s2)n1 | 925 |
| Cc1ccc(CN2C[C@@H]3C(=O)N(Cc4ccc5c(c4)OCO5)C(=O)[C@@H]3C2)cc1 | 760 |
| Cc1ccc(CN2CCN(C3CCN(S(=O)(=O)c4ccccc4Cl)CC3)C(=O)C2=O)cc1 | 847 |
| Cc1nnsc1C(=O)NCC(F)(F)F | 649 |
| COc1ccc(-n2nc(N3CCCC(C(=O)NC(C)CCc4ccccc4)C3)ccc2=O)cc1 (stereo unspecified) | 884 |
| Cc1cc(Br)ccc1NC(=O)Cc1csc(Nc2ccc(Cl)cn2)n1 | 1040 |
| CCC(C(=O)Nc1ccc(C(C)=O)cc1)n1cnc2nc3c(cc2c1=O)CCCC3 (stereo unspecified) | 748 |
| CN1CCCn2nc(C3CCN(C(=O)CSc4ccncc4)CC3)cc2C1=O | 569 |
| COc1ccc(NC(=O)Nc2cccn3c(C4CCC4)nnc23)c(C)c1 | 787 |
| COC(=O)c1ccc(Cl)cc1NC(=O)NCCc1cn(C)c2ncccc12 | 845 |
| Cc1cc(NC(=O)Cn2cnc3c(cnn3C(C)(C)C)c2=O)no1 | 688 |
| Cc1[nH]c(C(=O)N2CCC(CC(=O)N3CCC(C)CC3)CC2)c(C)c1C(=O)OC(C)C | 849 |
| CN(C)c1ccc(-c2nc3ncccn3c2Nc2ccccc2)cc1 | 687 |
| CCc1cc(=O)n(CC(=O)Nc2ccc3c(c2)OCO3)c(N2CCOCC2)n1 | 671 |
| Cc1cccc(CNC2=NCCNC23CCN(S(=O)(=O)c2c(C)cc(C)cc2C)CC3)c1 | 846 |
| O=C(CSc1ncn[nH]1)c1ccc2c(c1)OCCO2 | 626 |
| CCc1nc(OCC(=O)NCc2ccc(F)cc2)c2ccccc2n1 | 753 |
| CC1CCCN(CC2CCN(S(=O)(=O)Cc3ccccc3Cl)CC2)C1 (stereo unspecified) | 662 |
| COc1ccc(CNc2ccc(-c3nc(-c4ccc(F)cc4)no3)cn2)cc1 | 1220 |
| CCc1nn2c(CNC(=O)C3CCCO3)c(-c3ccccc3)nc2s1 (stereo unspecified) | 765 |
| CN(C)CCNC(=O)c1cc(-c2ccccc2)nc2ccccc12 | 620 |

| Compound | RP-LC retention time [s] |
| --- | --- |
| CCN1CCn2cc(S(=O)(=O)Nc3cc(F)cc(F)c3)cc2C1=O | 755 |
| CCN1CCc2nc(NC(=O)C3CCN(S(=O)(=O)c4ccc(Cl)s4)CC3)sc2C1 | 656 |
| COc1ccc2c(=O)c(Oc3ccc(C(=O)Nc4cccnc4)cc3)coc2c1 | 605 |
| Cc1nc2cc(N3CC(C(=O)NCc4cccc(Cl)c4)CC3=O)ccc2o1 (stereo unspecified) | 734 |
| CCOC(=O)N1CCN(C(=O)CN2CCC(COCc3ccccc3)CC2)CC1 | 571 |
| COc1ccc(OC)c(NC(=O)NCC(c2cccnc2)c2cn(C)c3ccccc23)c1 (stereo unspecified) | 713 |
| COc1cccc(N2C(=O)N(Cc3cccc(F)c3)S(=O)(=O)c3cccnc32)c1 | 1010 |
| O=C(c1cccc2[nH]ccc12)N1CC(Oc2ccc(-c3nc(-c4ccccc4)no3)cc2)C1 | 1100 |
| COc1ccc(S(=O)(=O)N2CCC(n3cnnc3-c3ccccc3)CC2)cc1Cl | 815 |
| Cc1ccc(C(CC(=O)NCCCN2CCCC2=O)N2Cc3ccccc3C2=O)cc1 (stereo unspecified) | 685 |
| CN(C)c1ccc(C(=O)NC2CCN(c3cc(-c4cccs4)[nH]n3)C2)cc1 (stereo unspecified) | 721 |
| CCS(=O)(=O)NCc1ccc2c(c1)CCN2C(=O)CC(C)C | 794 |
| Cc1ccsc1C(=O)N1CCC2(CC1)NC(=O)N(Cc1ccc(Cl)cc1)C2=O | 844 |
| CCN1C(=O)c2cccnc2Sc2cc(NC(=O)c3cccc(C)c3)ccc21 | 870 |
| O=C(NC1CCCCC1)N1CCN(CCn2c(-c3ccncc3)nc3cccnc32)CC1 | 585 |
| CCCS(=O)(=O)c1nc2ccc(NS(=O)(=O)c3ccc(Cl)cc3)cc2s1 | 984 |
| Cc1ccc2[nH]cc(CCNC(=O)C3CCCN(C(=O)c4[nH]c(C)cc4C)C3)c2c1 (stereo unspecified) | 832 |
| COC(=O)c1ccc(C(=O)NCC(O)c2cccc3ccccc23)cc1 (stereo unspecified) | 771 |
| O=c1c2scc(-c3ccc(Br)cc3)c2ncn1Cc1ccc(F)cc1 | 1180 |
| Cc1ccc(CNC(=O)CNC(=O)N2CCSc3nc(C)cc(C)c32)cc1 | 670 |
| COc1ccc(NC(=O)C2CCCN(S(=O)(=O)c3c[nH]c(C(=O)N4CCCC4)c3)C2)cc1Cl (stereo unspecified) | 819 |
| CCCn1ccc2sc(C)c(C(=O)NCCC3=CCCCC3)c2c1=O | 1000 |
| CCCCn1c(=O)c2ccccc2n(Cc2nc(-c3ccccc3)no2)c1=O | 1140 |

| Compound | RP-LC retention time [s] |
| --- | --- |
| Cc1ccc2oc(-c3noc(C(=O)NCc4ccc(C)o4)n3)c(C)c2c1 | 1080 |
| CCOC(=O)c1ccc(NC(=O)N2CCc3cn(CC)c4cccc(c34)C2)cc1 | 1150 |
| CCOc1ccc(NC(=O)Nc2nccn(-c3ccc(F)cc3)c2=O)cc1 | 939 |
| Nc1ncnc2c1nc(Cl)n2C1OC2COP(=O)(O)OC2C1O (stereo unspecified) | 523 |
| Cc1ccc(C)c(Nc2c(-c3ccc(N4CCOCC4)cc3)nc3ncccn23)c1 | 746 |
| O=C(NC1CCN(Cc2ccccc2)CC1)C1CCCN(c2ncnc3c2oc2ccccc23)C1 (stereo unspecified) | 604 |
| CCc1ccccc1NS(=O)(=O)c1ccc(-c2nnc(C3CCC3)o2)o1 | 960 |
| CCN(CC)C(=O)c1ccc2c(c1)N(CC(=O)NC)C(=O)C1CCCCN21 (stereo unspecified) | 684 |
| Cc1cc(C)n2nc(SCC(=O)Nc3cccc(C(F)(F)F)c3)nc2n1 | 827 |
| CCCN(CC1CCOC1)S(=O)(=O)c1ccc(C)c(F)c1 (stereo unspecified) | 878 |
| CCc1ccc(C(=O)NCCc2nc3cccnc3n2C(C)C)cc1 | 717 |
| COCCOc1ccc2c(n1)CCN(C(=O)NC1CCCC1)C2 | 724 |
| CC(=O)NCC(=O)N1CCCn2ccnc2C1C1CCCC1 (stereo unspecified) | 625 |
| COc1cccc(-c2ccc(=O)n(CCc3nc(-c4cccnc4)no3)n2)c1 | 746 |
| CCOC(=O)c1[nH]c(C)c(CCC(=O)N2CCC(C(=O)NCc3ccccc3OCC)CC2)c1C | 832 |
| Cc1cc2nn(CC(=O)N3CCc4ccccc43)c(=O)n2c(Nc2ccccc2C)n1 | 1080 |
| Cc1cc(C)cc(OCc2nc(CCN(C)C(=O)c3ccco3)no2)c1 | 873 |
| Cc1noc2ncn(CC(=O)Nc3ccc(F)cc3F)c(=O)c12 | 744 |
| CCNc1nc(C)cc(N2CCN(S(=O)(=O)c3cccc(C(F)(F)F)c3)CC2)n1 | 754 |
| COC(=O)Cn1c(COc2ccccc2)nc2ccccc21 | 706 |
| CN1C(=O)c2cccnc2Sc2cc(NC(=O)CCc3ccccc3)ccc21 | 818 |
| COc1ccc(Nc2nc(-c3ccc(OC)cc3)c(CCC(=O)O)s2)cc1 | 756 |

Source: the METLIN SMRT retention time set (Domingo-Almenara et al. 2019)
